Read-outs that look alike come from different tables or passages of the source.
What was measured:
[1] = biological target: T1, equilibrative nucleoside transporter 4 (hENT4) (Homo sapiens, UniProt Q7RTT9); assay: radiolabelled substrate uptake kinetics (Km, pH […] high-affinity component) and efflux in PK15-hENT4 cells; format: cell-based
T1 construct: gene SLC29A4
T1 sequence (Q7RTT9 1-530): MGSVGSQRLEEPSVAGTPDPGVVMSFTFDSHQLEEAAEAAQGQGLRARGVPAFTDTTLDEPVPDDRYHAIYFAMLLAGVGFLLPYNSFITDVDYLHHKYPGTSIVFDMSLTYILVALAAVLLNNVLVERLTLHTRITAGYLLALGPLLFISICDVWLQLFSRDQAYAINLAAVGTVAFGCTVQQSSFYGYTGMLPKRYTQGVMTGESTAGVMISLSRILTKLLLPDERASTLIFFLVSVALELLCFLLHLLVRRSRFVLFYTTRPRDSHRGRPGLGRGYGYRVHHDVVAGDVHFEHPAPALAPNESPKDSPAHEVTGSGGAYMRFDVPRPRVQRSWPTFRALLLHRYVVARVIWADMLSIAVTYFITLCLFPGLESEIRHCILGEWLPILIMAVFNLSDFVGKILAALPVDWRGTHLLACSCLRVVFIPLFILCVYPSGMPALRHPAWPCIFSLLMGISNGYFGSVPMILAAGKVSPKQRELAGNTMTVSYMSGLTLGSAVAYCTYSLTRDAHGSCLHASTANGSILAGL

[2] = biological target: T1, equilibrative nucleoside transporter 4 (hENT4); assay: inhibition of [3H]2-chloroadenosine uptake at pH […] in PK15-hENT4 cells; format: cell-based

| Compound | IC50 ([2]; read-out: IC50) | further results |
| --- | --- | --- |
| Nc1nc(Cl)nc2c1ncn2[C@@H]1O[C@H](CO)[C@@H](O)[C@H]1O [2-CADO, 2-chloroadenosine] |  | Km [1]: ~50 µM |
| CCN1/C(=C/c2ccc3ccccc3[n+]2CC)C=Cc2ccccc21 [D22, decynium 22] | ~2300 nM |  |
| C[n+]1ccc(-c2ccccc2)cc1 [MPP+, MPP^+] |  | IC50 [2]: 220000 nM |
| TC-T6000 | ~2300 nM |  |

— paper PMC6753126, “Bidirectional transport of 2-chloroadenosine by equilibrative nucleoside transporter 4 (hENT4): Evidence for allosteric kinetics at acidic pH” (Scientific Reports, 2019)
